The source of these data is paper PMC11982978, “Cancer hotspot mutations rewire ERK2 specificity by selective exclusion of docking interactions” (The Journal of Biological Chemistry, 2025).

In general, IC50 refers to the concentration at which inhibition is half-maximal. Higher therefore signals a need for much substance.

Peptide text beside a SMILES is read from it. * marks the point of attachment. Biotin = O=C1N[C@H]2[C@H](CS[C@H]2CCCCC(=O)*)N1

Common to all, as to assay type: biochemical
For test [1], the target named is T1, ERK2 WT (Mus musculus, UniProt P63085).
T1 construct: His6; made in house; host or cells: E. coli BL21(DE3), co-expressed with GST-MEK1ΔN3
The experiment in a line: Competitive peptide kinase assay (D-peptide inhibition), ERK2 WT. Conditions: Table S1, 5 μM reporter peptide, 10 nM ERK2, 10 μM ATP, three independent experiments.
Method: (§1) We determined relative binding affinities for D-peptides from their potency as competitive inhibitors of WT or mutant ERK2 activity on a D-site-dependent reporter substrate peptide (Table S1, Fig. 3A, S3).
(§2) Competitive peptide kinase assays were performed with a D-site dependent MAPK reporter substrate peptide (AssayQuant Technologies Inc, #AQT0376) as we reported previously ([15]). Briefly, 5 μM of reporter peptide was mixed with various concentrations of D-peptides in reaction buffer (54 mM HEPES [pH 7.4], 1.2 mM DTT, 0.01% Brij-35, 1% glycerol, 0.2 mg/ml BSA, and 10 mM MgCl2). […] Phosphorylation of the reporter peptide was measured by fluorescence (λex 360 nm, λem 485 nm) in 90 s intervals over 21 min in a Spectra M5 plate reader. Rates were calculated from the linear portion of the reaction progress curve, and data were normalized to maximum (samples lacking competitor peptide) and minimum (control reactions lacking kinase) values. Normalized rates were plotted against D-peptide concentration and fitted into a sigmoidal dose-response curve to determine the IC50 values using GraphPad Prism (Version 9.3.0).

The target in test [2] is T2, ERK2 D319N (Mus musculus, UniProt P63085, D319N).
T2 construct: His6; made in house; host or cells: E. coli BL21(DE3), co-expressed with GST-MEK1ΔN3
The experiment in a line: Competitive peptide kinase assay (D-peptide inhibition), ERK2 D319N. Conditions: Table S1, 5 μM reporter peptide, 10 nM ERK2, 10 μM ATP, three independent experiments.
Method: as §1, §2

Test [3] concerns the target T3, ERK2 E322K (Mus musculus, UniProt P63085, E320K).
T3 construct: His6; made in house; host or cells: E. coli BL21(DE3), co-expressed with GST-MEK1ΔN3
The experiment in a line: Competitive peptide kinase assay (D-peptide inhibition), ERK2 E322K. The conditions noted are these: Table S1, 5 μM reporter peptide, 10 nM ERK2, 10 μM ATP, three independent experiments.
Method: as §1, §2

The target in test [4] is T4, ERK2 R133K (Mus musculus, UniProt P63085, R133K).
T4 construct: His6; made in house; host or cells: E. coli BL21(DE3), co-expressed with GST-MEK1ΔN3
The test can be described thus: Competitive peptide kinase assay (D-peptide inhibition), ERK2 R133K. Conditions: Table S1, 5 μM reporter peptide, 10 nM ERK2, 10 μM ATP, three independent experiments.
Method: as §1, §2

The test system of test [5] is His6-ERK2 WT. The experiment in a line: Radiolabel kinase assay with competing D-peptide. Conditions: 10 μM KMT2C D-peptide, WT without peptide = 100.0; for ELK1 WT phosphorylation, Normalized: 0.5 μM GST-ELK1 WT; for ELK1 WT phosphorylation, Normalized / ELK1 ΔD phosphorylation, Normalized: 10 nM ERK2 WT; for ELK1 ΔD phosphorylation, Normalized: 0.5 μM GST-ELK1 ΔD; for GEF-H1 phosphorylation, Normalized: 0.5 μM His6-GEF-H1, 10 nM ERK2 WT. The source says:
Based on our structural and mutational analysis, we hypothesized that ERK2 CD site mutants should not bind or efficiently phosphorylate validated ERK2 substrates containing an I/L-x-x-R-R D-site motif. We previously reported that while ISG20 interacts physically with ERK2 in cells, it is not an ERK2 substrate in vitro ([15]). […] We previously reported that disruption of the GEF-H1 docking motif reduced its extent of co-immunoprecipitation with ERK2 ([15]). Accordingly, we investigated whether cancer-associated ERK2 mutants were impaired in phosphorylating GEF-H1. […] The level of phosphorylation by CD site mutants was similar to that of WT ERK2 when assayed in the presence of excess competing D-peptide to block docking interactions.
Radiolabel kinase assays were performed as described previously by incubating 0.5 μM MAPK substrate (His6-GEF-H1, GST-ELK1^WT or GST-ELK1^ΔD), 10 nM His6-ERK2 (WT, R133K, D319N or E320K) and 10 μM inhibitor peptide KMT2C where indicated (biotin-RKRSKPKLKLKIIN-amide, Tufts University Core Facility) in reaction buffer (20 mM HEPES, 10 mM MgCl2, 1 mM DTT, 1% DMSO, 10 μM cold ATP, and 0.038 μCi/μl [γ-^32P] ATP) at 30 °C for 2 min. Reactions were quenched by the addition of 4x SDS-PAGE loading buffer and heated to 95 °C for 5 min before SDS-PAGE fractionation. Gels were stained with Coomassie blue, destained, dried, and exposed to a phosphor screen. Radiolabel incorporation was measured with Molecular Imager FX phosphorimager (Bio-Rad), and ^32P signal density (CNT/mm^2) was quantified using QuantityOne Software (Bio-Rad version 11.0.5). All signals were normalized to the vehicle control condition. Raw quantified data are provided in Dataset S3.

T3 sequence (P63085 whole entry E320K): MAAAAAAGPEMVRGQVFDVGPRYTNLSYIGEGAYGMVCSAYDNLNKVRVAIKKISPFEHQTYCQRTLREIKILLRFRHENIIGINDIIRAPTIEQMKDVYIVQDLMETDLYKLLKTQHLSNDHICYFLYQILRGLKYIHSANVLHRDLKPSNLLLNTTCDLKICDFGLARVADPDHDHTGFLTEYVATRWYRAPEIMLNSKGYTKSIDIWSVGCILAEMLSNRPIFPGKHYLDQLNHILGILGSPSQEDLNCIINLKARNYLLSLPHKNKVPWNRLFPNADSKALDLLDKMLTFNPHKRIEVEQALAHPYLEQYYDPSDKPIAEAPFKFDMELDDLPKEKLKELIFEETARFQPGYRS
T1 sequence (P63085 whole entry): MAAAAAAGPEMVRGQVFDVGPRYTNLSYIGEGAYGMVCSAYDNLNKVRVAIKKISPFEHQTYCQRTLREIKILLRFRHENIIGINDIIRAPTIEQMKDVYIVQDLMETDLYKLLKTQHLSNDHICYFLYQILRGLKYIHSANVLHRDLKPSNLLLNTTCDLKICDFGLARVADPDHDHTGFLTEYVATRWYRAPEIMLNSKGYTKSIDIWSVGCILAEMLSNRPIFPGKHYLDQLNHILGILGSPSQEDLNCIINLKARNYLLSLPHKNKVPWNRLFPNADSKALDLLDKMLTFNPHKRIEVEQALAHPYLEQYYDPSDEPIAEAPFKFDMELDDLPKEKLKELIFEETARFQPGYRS
T2 sequence (P63085 whole entry D319N): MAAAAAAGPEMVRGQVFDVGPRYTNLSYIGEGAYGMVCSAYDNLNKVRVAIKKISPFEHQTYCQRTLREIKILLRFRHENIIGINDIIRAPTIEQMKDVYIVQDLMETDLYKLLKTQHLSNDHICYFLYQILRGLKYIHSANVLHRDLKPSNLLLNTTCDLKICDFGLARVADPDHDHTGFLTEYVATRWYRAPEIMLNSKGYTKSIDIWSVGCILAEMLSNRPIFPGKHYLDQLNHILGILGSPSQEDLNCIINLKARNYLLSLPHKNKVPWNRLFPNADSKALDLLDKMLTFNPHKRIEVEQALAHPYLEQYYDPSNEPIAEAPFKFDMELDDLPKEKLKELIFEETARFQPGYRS
T4 sequence (P63085 whole entry R133K): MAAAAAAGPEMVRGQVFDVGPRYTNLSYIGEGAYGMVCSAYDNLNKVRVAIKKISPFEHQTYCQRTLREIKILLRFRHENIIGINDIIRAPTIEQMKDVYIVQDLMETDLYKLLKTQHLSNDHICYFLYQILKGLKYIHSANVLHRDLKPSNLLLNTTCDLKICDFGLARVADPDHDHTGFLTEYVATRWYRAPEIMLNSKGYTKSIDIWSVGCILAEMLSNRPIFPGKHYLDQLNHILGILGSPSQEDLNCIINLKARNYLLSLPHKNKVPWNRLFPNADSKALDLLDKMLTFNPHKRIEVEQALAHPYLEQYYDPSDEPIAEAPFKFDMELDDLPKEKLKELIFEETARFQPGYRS

Take `CC(C)C[C@H](NC(=O)[C@H](C)NC(=O)[C@@H](N)Cc1ccc(O)cc1)C(=O)N[C@@H](CCC(N)=O)C(=O)N[C@@H](CCC(N)=O)C(=O)N[C@@H](CCCNC(=N)N)C(=O)N[C@@H](CCCNC(=N)N)C(=O)N[C@@H](CC(C)C)C(=O)N[C@@H](CCC(N)=O)C(=O)N[C@@H](Cc1c[nH]cn1)C(=O)N[C@@H](CCCNC(=N)N)C(=O)N[C@@H](CC(C)C)C(=O)N[C@@H](CCCNC(=N)N)C(=O)N[C@@H](CC(C)C)C(=O)N[C@@H](CCCNC(=N)N)C(=O)N[C@@H](C)C(=O)O` [AEBP1] (H-YALQQRRLQHRLRLRA-OH): the IC50 in test [1] was 16 µM; in test [2], 120 µM; in test [3] it was 160 µM; in test [4], 110 µM.

`CC(C)C[C@H](NC(=O)[C@H](CC(C)C)NC(=O)[C@H](CC(C)C)NC(=O)[C@H](CCCNC(=N)N)NC(=O)[C@H](CCCCN)NC(=O)[C@@H]1CCCN1C(=O)[C@H](CCCCN)NC(=O)[C@@H]1CCCN1C(=O)CNC(=O)[C@H](CCCNC(=N)N)NC(=O)[C@H](CCCCN)NC(=O)[C@H](CCCNC(=N)N)NC(=O)[C@H](C)NC(=O)[C@@H](N)Cc1ccc(O)cc1)C(=O)N[C@@H](CCC(N)=O)C(=O)N[C@@H](CCCNC(=N)N)C(=O)O` [CBX7] (H-YARKRGPKPKRLLLQR-OH): the IC50 in test [1] came to 5.1 µM; in test [2], 9.8 µM; in test [3], 14 µM; in test [4], 5.7 µM.

As for `CC[C@H](C)[C@H](NC(=O)[C@@H](NC(=O)[C@H](CCC(=O)O)NC(=O)[C@H](CCSC)NC(=O)[C@H](CCC(N)=O)NC(=O)[C@H](CCCNC(=N)N)NC(=O)[C@H](CCCNC(=N)N)NC(=O)[C@H](CC(N)=O)NC(=O)[C@H](CCCNC(=N)N)NC(=O)[C@H](CC(C)C)NC(=O)[C@H](C)NC(=O)[C@@H](N)Cc1ccc(O)cc1)C(C)C)C(=O)N[C@@H](CO)C(=O)N[C@@H](CC(C)C)C(=O)N[C@@H](CCCNC(=N)N)C(=O)N[C@@H](CC(C)C)C(=O)O` [DISC1] (H-YALRNRRQMEVISLRL-OH), the concentration for half-maximal inhibition (IC50) in test [1] turned out to be 23 µM; in test [2], 79 µM; in test [3], 110 µM; in test [4] it was 74 µM.

Turning to `CC(C)C[C@H](NC(=O)[C@H](CC(=O)O)NC(=O)[C@H](CCCNC(=N)N)NC(=O)[C@@H]1CCCN1C(=O)[C@H](CCCCN)NC(=O)[C@H](CCCNC(=N)N)NC(=O)CNC(=O)[C@H](CCCCN)NC(=O)[C@H](C)NC(=O)[C@@H](N)Cc1ccc(O)cc1)C(=O)N[C@@H](CCC(=O)O)C(=O)N[C@@H](CC(C)C)C(=O)N1CCC[C@H]1C(=O)N[C@@H](CC(C)C)C(=O)N[C@@H](CO)C(=O)N1CCC[C@H]1C(=O)O` [ELK1] (H-YAKGRKPRDLELPLSP-OH), the IC50 in test [1] amounted to 35 µM; in test [2] it was 32 µM; in test [3], 43 µM; in test [4], 58 µM.

With `CC[C@H](C)[C@H](NC(=O)[C@H](CC(C)C)NC(=O)[C@@H]1CCCN1C(=O)[C@H](CCC(=O)O)NC(=O)[C@@H]1CCCN1C(=O)[C@H](CCCNC(=N)N)NC(=O)[C@@H]1CCCN1C(=O)[C@H](CCCNC(=N)N)NC(=O)[C@H](CCC(N)=O)NC(=O)[C@H](CCCCN)NC(=O)[C@@H]1CCCN1C(=O)[C@H](C)NC(=O)[C@@H](N)Cc1ccc(O)cc1)C(=O)N[C@H](C(=O)N1CCC[C@H]1C(=O)N[C@H](C(=O)O)[C@@H](C)O)[C@@H](C)CC` [ELMSAN1] (H-YAPKQRPRPEPLIIPT-OH), the IC50 turned out to be 24 µM in test [1], 30 µM in test [2], 40 µM in test [3] and 27 µM in test [4].

For `CC(C)C[C@H](NC(=O)CNC(=O)[C@H](CCCNC(=N)N)NC(=O)[C@H](CCCNC(=N)N)NC(=O)[C@H](C)NC(=O)[C@H](CS)NC(=O)[C@H](CC(C)C)NC(=O)[C@H](C)NC(=O)[C@@H](N)Cc1ccc(O)cc1)C(=O)N[C@@H](Cc1ccc(O)cc1)C(=O)N[C@@H](CS)C(=O)N[C@@H](CC(C)C)C(=O)N[C@@H](CO)C(=O)N[C@@H](CC(C)C)C(=O)N[C@@H](CC(=O)O)C(=O)N[C@@H](Cc1c[nH]cn1)C(=O)O` [FAAP100], the IC50 in test [1] is 92 µM; in test [2], over 200 µM; in test [3], over 200 µM; in test [4], over 200 µM.

In the case of `CC[C@H](C)[C@H](NC(=O)[C@@H](NC(=O)[C@H](CC(C)C)NC(=O)[C@H](C)NC(=O)[C@@H]1CCCN1C(=O)[C@H](CC(C)C)NC(=O)[C@@H](NC(=O)[C@@H]1CCCN1C(=O)[C@H](CCCCN)NC(=O)[C@H](CCCNC(=N)N)NC(=O)[C@H](CCCNC(=N)N)NC(=O)[C@H](C)NC(=O)[C@H](C)NC(=O)[C@@H](N)Cc1ccc(O)cc1)C(C)C)[C@@H](C)O)C(=O)N[C@@H](CC(N)=O)C(=O)N1CCC[C@H]1C(=O)O` [MAP2K2] (H-YAARRKPVLPALTINP-OH), the IC50 amounted to 23 µM in test [1], 23 µM in test [2], 41 µM in test [3] and 29 µM in test [4].

As for `CC(C)C[C@H](NC(=O)CNC(=O)[C@H](CCCCN)NC(=O)[C@H](Cc1ccccc1)NC(=O)[C@H](CC(N)=O)NC(=O)[C@H](CCCCN)NC(=O)[C@H](Cc1c[nH]c2ccccc12)NC(=O)[C@H](CCCCN)NC(=O)[C@@H]1CCCN1C(=O)[C@H](CO)NC(=O)[C@H](C)NC(=O)[C@@H](N)Cc1ccc(O)cc1)C(=O)N[C@@H](CCCCN)C(=O)N[C@@H](CC(C)C)C(=O)N[C@@H](CC(C)C)C(=O)N[C@@H](CS)C(=O)O` [MLXIPL] (H-YASPKWKNFKGLKLLC-OH), the IC50 turned out to be 18 µM in test [1], 26 µM in test [2], 28 µM in test [3] and 23 µM in test [4].

On to `CC(C)C[C@H](NC(=O)[C@@H](NC(=O)[C@H](CC(C)C)NC(=O)[C@H](CO)NC(=O)[C@@H](NC(=O)[C@H](CC(N)=O)NC(=O)[C@H](CO)NC(=O)CNC(=O)[C@H](CCCNC(=N)N)NC(=O)[C@H](CCCNC(=N)N)NC(=O)[C@H](CCC(=O)O)NC(=O)[C@H](CCC(N)=O)NC(=O)[C@H](CC(C)C)NC(=O)CNC(=O)[C@H](C)NC(=O)[C@@H](N)Cc1ccc(O)cc1)C(C)C)[C@@H](C)O)C(=O)O` [PTPN5] (H-YAGLQERRGSNVSLTL-OH), for which the IC50 stood at 42 µM in test [1], 600 µM in test [2], 600 µM in test [3] and 760 µM in test [4].

Take `CC[C@H](C)[C@H](NC(=O)[C@H](C)NC(=O)[C@@H](N)Cc1ccc(O)cc1)C(=O)N[C@@H](CCCCN)C(=O)NCC(=O)N[C@@H](CCCCN)C(=O)N[C@@H](CCCNC(=N)N)C(=O)N[C@@H](CCCNC(=N)N)C(=O)N[C@@H](CCCNC(=N)N)C(=O)N[C@@H](CCCCN)C(=O)N[C@@H](CCCCN)C(=O)N[C@@H](CC(C)C)C(=O)N[C@H](C(=O)N[C@@H](CC(C)C)C(=O)N[C@@H](C)C(=O)N[C@@H](CCCCN)C(=O)O)[C@@H](C)CC` [ZBED6] (H-YAIKGKRRRKKLILAK-OH): the IC50 in test [1] was determined as 6.8 µM; in test [2], 23 µM; in test [3], 56 µM; in test [4] it was 6.2 µM.

In the case of Biotin-RKRSKPKLKLKIIN-NH2 [D-pep], the “ELK1 WT phosphorylation, Normalized” value in test [5] (Replicate 1) was found to be 66.2; in test [5] (Replicate 2), 52.7; in test [5] (Replicate 3) it was 42.6. The “ELK1 ΔD phosphorylation, Normalized” value in test [5] (Replicate 1) came to 107.4; in test [5] (Replicate 2) it was 80.5; in test [5] (Replicate 3), 85.4. The “GEF-H1 phosphorylation, Normalized” value in test [5] (30 °C 2 min, Replicate 1) turned out to be 23.5; in test [5] (Replicate 2) it was 37.1; in test [5] (Replicate 3), 54.2.
